How the values were obtained:
[1] = test system: SORHA (johnsongrass (seedling)); assay: Pre-plant incorporated (PPI) herbicidal activity, warm season; type: in vivo, Sorghum halepense; conditions: for PPI activity GR80, SORHA: pre-plant incorporated, lowest tested rate with 80% or greater inhibition, about 14 days
Procedure: (§1) In another set of tests, the pre-plant incorporated (PPI) activity of compounds of this invention was evaluated on the same species as for the pre-emergence tests described above. In the PPI tests the following procedure, designed to simulate PPI application, was used.
(§2) A pre-prepared topsoil mixture (described above) was placed in a pot and compacted to a depth of 1.0 to 1.25 cm from the top of the pot. Seeds of each of several monocotyledonous and dicotyledonous annual plant species were placed on top of the soil. A sufficient quantity of soil to cover the seeds and level fill the pot was weighed into an open container. A known amount of the test compound was dissolved or suspended in an organic solvent and applied by spraying to this cover soil. The cover soil was thoroughly mixed to distribute the test compound throughout the cover soil, and was then applied as a cover layer over the seeds. Untreated soil was used as a cover layer for control pots. After treatment the plants were placed in a greenhouse where they received 0.64 cm of overhead irrigation. All subsequent watering consisted of a light overhead mist and/or subirrigation as needed for germination and growth. Tables 9 and 10 below relate to warm season plant species which were placed after pre-emergence treatment in a greenhouse with a 30/21° C. day/night temperature regime. Tables 11 and 12 below relates to cool season plant species placed after pre-emergence treatment in a greenhouse or growth chamber with an 18/13° C. day/night temperature regime. Only the compounds of Examples 1, 6, 8, 11, 13 and 15-20 were included in PPI tests.
(§3) Approximately 14 days after planting and treating, the plants were observed and herbicidal efficacy recorded as percent inhibition by comparison with untreated plants.

[2] = test system: GALAP (catchweed bedstraw); assay: Pre-emergence herbicidal activity, cool season; type: in vivo, Galium aparine; conditions: lowest tested rate with 80% or greater inhibition; rates 300, 100, 30, 10 g/ha; about 14 days
In short: (§4)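 Seeds sown in sterilised fertilised topsoil received surface-applied compound in 50:50 acetone/water, typically at 300, 100, 30 and 10 g/ha, then greenhouse-grown at 30/21° C (warm-season species) or 18/13° C (cool-season species). Percent inhibition versus untreated plants was scored at about 14 days, giving GR80; an asterisk marks activity short of 80% at the top rate.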

[3] = test system: AGRRE (quackgrass (seedling)); assay: Post-emergence herbicidal activity, cool season; type: in vivo, Elymus repens; conditions: abraded plants sprayed at 300, 100, 30 and 10 g/ha; about 14 days after treatment
In short: (§5)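 Seedlings grown from seed in topsoil pots were treated 9 to 14 days after planting, foliage first abraded with garnet particles, then sprayed with test compound in 50:50 acetone/water at 300, 100, 30 and 10 g/ha (3,100 l/ha). Kept at 18/13° C. day/night, percent inhibition versus abraded unsprayed controls was scored about 14 days later and GR80 assigned.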

[4] = test system: LAMPU (purple deadnettle); assay: Pre-plant incorporated (PPI) herbicidal activity, cool season; type: in vivo, Lamium purpureum; conditions: for PPI activity GR80, LAMPU: pre-plant incorporated, lowest tested rate with 80% or greater inhibition, about 14 days
Procedure: as §1, §2, §3

[5] = test system: LAMPU (purple deadnettle); assay: Pre-emergence herbicidal activity, cool season; type: in vivo, Lamium purpureum; conditions: lowest tested rate with 80% or greater inhibition; rates 300, 100, 30, 10 g/ha; about 14 days
In short: as §4

[6] = test system: AGSST (creeping bentgrass); assay: Pre-plant incorporated (PPI) herbicidal activity, cool season; type: in vivo, Agrostis stolonifera; conditions: for PPI activity GR80, AGSST: pre-plant incorporated, lowest tested rate with 80% or greater inhibition, about 14 days
Procedure: as §1, §2, §3

[7] = test system: SETVI (green foxtail); assay: Post-emergence herbicidal activity, cool season; type: in vivo, Setaria viridis; conditions: abraded plants sprayed at 300, 100, 30 and 10 g/ha; about 14 days after treatment
In short: as §5

[8] = test system: BRAPP (broadleaf signalgrass); assay: Pre-plant incorporated (PPI) herbicidal activity, warm season; type: in vivo, Brachiaria platyphylla; conditions: for PPI activity GR80, BRAPP: pre-plant incorporated, lowest tested rate with 80% or greater inhibition, about 14 days
Procedure: as §1, §2, §3

[9] = weed, PPI application, 100 g/ha
[10] = weed, PPI application, 300 g/ha
[11] = weed, PPI application, 900 g/ha

| SMILES | Percent inhibition SORHA ([1]; PPI application, 30 g/ha) | Percent inhibition SORHA ([1]; PPI application, 100 g/ha) | Percent inhibition SORHA ([1]; PPI application, 300 g/ha) | Percent inhibition SORHA ([1]; PPI application, 900 g/ha) | PPI activity GR80, SORHA [1] | Pre-emergence activity GR80, GALAP [2] | Post-emergence activity GR80, AGRRE [3] | PPI activity GR80, LAMPU [4] | Percent inhibition LAMPU ([4]; weed, PPI application, 10 g/ha) | Percent inhibition LAMPU ([4]; weed, PPI application, 30 g/ha) | Percent inhibition LAMPU [4, 9] | Percent inhibition LAMPU [4, 10] | Percent inhibition LAMPU [4, 11] | Pre-emergence activity GR80, LAMPU [5] | PPI activity GR80, AGSST [6] | Percent inhibition AGSST ([6]; weed, PPI application, 10 g/ha) | Percent inhibition AGSST ([6]; weed, PPI application, 30 g/ha) | Percent inhibition AGSST [6, 9] | Post-emergence activity GR80, SETVI [7] | PPI activity GR80, BRAPP [8] | further results |
| --- | --- | --- | --- | --- | --- | --- | --- | --- | --- | --- | --- | --- | --- | --- | --- | --- | --- | --- | --- | --- | --- |
| CCN(CC)C(=O)n1cnc(S(=O)(=O)C(F)(F)SCC(=O)OC)n1 [Example 11] | 0% | 30% | 80% | 100% | 300 g/ha | [empty] | [empty] | 300 g/ha | 0% | 0% | 0% | 0% | 0% | 100 g/ha | 300 g/ha | 60% | 50% | 60% | [empty] | 300 g/ha | Percent inhibition SORHA ([1]; PPI application, 10 g/ha): 0%; Percent inhibition AGSST [6, 10]: 90%; Percent inhibition AGSST [6, 11]: 100%; Percent inhibition BRAPP ([8]; PPI application, 10 g/ha): 0%; Percent inhibition BRAPP ([8]; PPI application, 30 g/ha): 0%; Percent inhibition BRAPP ([8]; PPI application, 100 g/ha): 60%; Percent inhibition BRAPP ([8]; PPI application, 300 g/ha): 100%; Percent inhibition BRAPP ([8]; PPI application, 900 g/ha): 100% |
| C=CCC(F)(F)S(=O)(=O)c1ncn(C(=O)N(CC)CC)n1 [Example 17, 1-(N,N-diethylcarbamoyl)-3-[(1,1-difluoro-3-butenyl)sulfonyl]-1,2,4-triazole] |  |  |  |  | 10 g/ha | 100 g/ha | [empty] | 30 g/ha |  |  |  |  |  | 100 g/ha | 10 g/ha |  |  |  | [empty] | 100 g/ha | inhibition at 10 g/ha ([1]; Sorghum halepense, PPI application, 10 g/ha, read-out: Percent inhibition SORHA): 95%; inhibition at 30 g/ha ([1]; Sorghum halepense, PPI application, 30 g/ha, read-out: Percent inhibition SORHA): 60%; inhibition at 100 g/ha ([1]; Sorghum halepense, PPI application, 100 g/ha, read-out: Percent inhibition SORHA): 100%; inhibition at 300 g/ha ([1]; Sorghum halepense, PPI application, 300 g/ha, read-out: Percent inhibition SORHA): 100%; inhibition at 900 g/ha ([1]; Sorghum halepense, PPI application, 900 g/ha, read-out: Percent inhibition SORHA): 100%; inhibition at 10 g/ha ([4]; Lamium purpureum, weed, PPI application, 10 g/ha, read-out: Percent inhibition LAMPU): 100%; inhibition at 30 g/ha ([4]; Lamium purpureum, weed, PPI application, 30 g/ha, read-out: Percent inhibition LAMPU): 100%; inhibition at 100 g/ha ([4]; Lamium purpureum, weed, PPI application, 100 g/ha, read-out: Percent inhibition LAMPU): 100%; inhibition at 300 g/ha ([4]; Lamium purpureum, weed, PPI application, 300 g/ha, read-out: Percent inhibition LAMPU): 100%; inhibition at 900 g/ha ([4]; Lamium purpureum, weed, PPI application, 900 g/ha, read-out: Percent inhibition LAMPU): 100%; inhibition at 10 g/ha ([6]; Agrostis stolonifera, weed, PPI application, 10 g/ha, read-out: Percent inhibition AGSST): 70%; inhibition at 30 g/ha ([6]; Agrostis stolonifera, weed, PPI application, 30 g/ha, read-out: Percent inhibition AGSST): 95%; inhibition at 100 g/ha ([6]; Agrostis stolonifera, weed, PPI application, 100 g/ha, read-out: Percent inhibition AGSST): 95%; inhibition at 300 g/ha ([6]; Agrostis stolonifera, weed, PPI application, 300 g/ha, read-out: Percent inhibition AGSST): 100%; inhibition at 900 g/ha ([6]; Agrostis stolonifera, weed, PPI application, 900 g/ha, read-out: Percent inhibition AGSST): 100%; inhibition at 10 g/ha ([8]; Urochloa platyphylla, PPI application, 10 g/ha, read-out: Percent inhibition BRAPP): 0%; inhibition at 30 g/ha ([8]; Urochloa platyphylla, PPI application, 30 g/ha, read-out: Percent inhibition BRAPP): 0%; inhibition at 100 g/ha ([8]; Urochloa platyphylla, PPI application, 100 g/ha, read-out: Percent inhibition BRAPP): 50%; inhibition at 300 g/ha ([8]; Urochloa platyphylla, PPI application, 300 g/ha, read-out: Percent inhibition BRAPP): 100%; inhibition at 900 g/ha ([8]; Urochloa platyphylla, PPI application, 900 g/ha, read-out: Percent inhibition BRAPP): 100% |
| C=C(CC(F)(F)S(=O)(=O)c1ncn(C(=O)N(CC)CC)n1)C[Si](C)(C)C [Example 20] | 0% | 20% | 80% | 80% | 100 g/ha | [empty] | [empty] | 100 g/ha | 90% | 60% | 80% | 100% | 95% | 100 g/ha | 30 g/ha | 0% | 10% | 85% | [empty] | 100 g/ha | Percent inhibition AGSST [6, 10]: 75%; Percent inhibition AGSST [6, 11]: 100%; Percent inhibition BRAPP ([8]; PPI application, 10 g/ha): 0%; Percent inhibition BRAPP ([8]; PPI application, 30 g/ha): 0%; Percent inhibition BRAPP ([8]; PPI application, 100 g/ha): 0%; Percent inhibition BRAPP ([8]; PPI application, 300 g/ha): 30%; Percent inhibition BRAPP ([8]; PPI application, 900 g/ha): 60% |

Reference: US6461997B1, “Triazole sulfones having herbicidal activity” (Monsanto Technology LLC, priority 1999, dated 2002)
